These results are taken from patent publication US20250230153A1, “2,3-DIHYDROBENZO[B][1,4]DIOXIN-6-YL CONTAINING COMPOUNDS USEFUL AS IMMUNOMODULATORS” (BRISTOL-MYERS SQUIBB COMPANY, priority 2021, published 2025).

The test concerns the target PD-1/PD-L1 (Homo sapiens (Human), UniProt Q9NZQ7). As to the kind of experiment: PD-1/PD-L1 Homogenous Time-Resolved Fluorescence (HTRF) binding assay. The settings on record: PD-1-Ig (20 nM final)/PD-L1-His (10 nM final) binding assay. A digest of the protocol:
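Compounds pre-incubated 15 min with human PD-L1(18-239)-His (10 nM final), then 15 min with PD-1(25-167)-Ig (20 nM final), in dPBS with 0.1% BSA and 0.05% Tween-20. Detection with Eu-cryptate anti-Ig (1 nM) and APC anti-His (20 nM) after 30 min equilibration; 665/620 nm ratio read.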
A general note: Time-resolved FRET reads energy transfer from a long-lived donor to a nearby acceptor.

Sequence of PD-1/PD-L1 (Q9NZQ7 18-239): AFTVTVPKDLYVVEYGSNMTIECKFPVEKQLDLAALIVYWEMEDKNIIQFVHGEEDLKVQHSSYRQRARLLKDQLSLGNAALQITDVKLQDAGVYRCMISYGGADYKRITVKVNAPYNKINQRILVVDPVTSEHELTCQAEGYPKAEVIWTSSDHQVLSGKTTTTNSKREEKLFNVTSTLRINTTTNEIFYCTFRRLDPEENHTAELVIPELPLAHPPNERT

What is called IC50 is the midpoint of a concentration-inhibition curve. For `Cc1c(COc2cc(OCCN3CCS(=O)(=O)CC3)c(CN3CCCC[C@H]3C(=O)O)cc2Cl)cccc1-c1ccc2c(c1)OCCO2` [Example 1060, (S)-1-(5-chloro-4-((3-(2,3-dihydrobenzo[b][1,4]dioxin-6-yl)-2-methylbenzyl)oxy)-2-(2-(1,1-dioxidothiomorpholino)ethoxy)benzyl)piperidine-2-carboxylic acid], the IC50 was 9.2 nM.

Turning to `Cc1c(COc2cc(OCC3CCCCC3)c(CN3CCCC[C@H]3C(=O)O)cc2Cl)cccc1-c1ccc2c(c1)OCCO2` [Example 1040, (S)-1-(5-Chloro-2-(cyclohexylmethoxy)-4-((3-(2,3-dihydrobenzo[b][1,4]dioxin-6-yl)-2-methylbenzyl)oxy)benzyl)piperidine-2-carboxylic acid], the IC50 amounted to 164 nM.

Molecule `Cc1c(COc2cc(OCC3CCC3)c(CN3CCCC[C@H]3C(=O)O)cc2Cl)cccc1-c1ccc2c(c1)OCCO2` [Example 1050, (S)-1-(5-Chloro-2-(cyclobutylmethoxy)-4-((3-(2,3-dihydrobenzo[b][1,4]dioxin-6-yl)-2-methylbenzyl)oxy)benzyl)piperidine-2-carboxylic acid] gave a 50% inhibitory concentration (IC50) of 59.8 nM.

As for `Cc1c(COc2cc(OCc3cccc(-c4nc(CC(=O)O)cs4)c3)c(CN[C@@](C)(CO)C(=O)O)cc2Cl)cccc1-c1ccc2c(c1)OCCO2` [Example 1013, (S)-2-((2-((3-(4-(Carboxymethyl)thiazol-2-yl)benzyl)oxy)-5-chloro-4-((3-(2,3-dihydrobenzo[b][1,4]dioxin-6-yl)-2-methylbenzyl)oxy)benzyl)amino)-3-hydroxy-2-methylpropanoic acid], the 50% inhibitory concentration (IC50) was 72 nM.

`Cc1c(COc2cc(OCc3cncc(C(=O)NCCC(=O)O)c3)c(CN3CC[C@H](O)C3)cc2Cl)cccc1-c1ccc2c(c1)OCCO2` [Example 2008, (S)-3-(5-((4-chloro-5-((3-(2,3-dihydrobenzo[b][1,4]dioxin-6-yl)-2-methylbenzyl)oxy)-2-((3-hydroxypyrrolidin-1-yl)methyl)phenoxy)methyl)nicotinamido)propanoic acid]: the concentration for half-maximal inhibition (IC50) was 5.2 nM.

With `Cc1c(COc2cc(OCc3cncc(SCCC(=O)O)c3)c(CN[C@@](C)(CO)C(=O)O)cc2Cl)cccc1-c1ccc2c(c1)OCCO2` [Example 1014, (S)-2-((2-((5-((2-Carboxyethyl)thio)pyridin-3-yl)methoxy)-5-chloro-4-((3-(2,3-dihydrobenzo[b][1,4]dioxin-6-yl)-2-methylbenzyl)oxy)benzyl)amino)-3-hydroxy-2-methylpropanoic acid], the half-maximal inhibitory concentration (IC50) was determined as 6.6 nM.

In the case of `Cc1c(COc2cc(OCCN3CCC(O)(C(=O)O)CC3)c(CN[C@](C)(CO)C(=O)O)cc2Cl)cccc1-c1ccc2c(c1)OCCO2` [Example 1055, (R)-1-(2-(2-(((2-Carboxy-1-hydroxypropan-2-yl)amino)methyl)-4-chloro-5-((3-(2,3-dihydrobenzo[b]1[1,4]dioxin-6-yl)-2-methylbenzyl)oxy)phenoxy)ethyl)-4-hydroxypiperidine-4-carboxylic acid], the IC50 was determined as 0.4 nM.

The molecule `Cc1c(COc2cc(OCC3CCCCC3)c(CNC(C)(CO)CO)cc2Cl)cccc1-c1ccc2c(c1)OCCO2` [Example 1041, 2-((5-Chloro-2-(cyclohexylmethoxy)-4-((3-(2,3-dihydrobenzo[b][1,4]dioxin-6-yl)-2-methylbenzyl)oxy)benzyl)amino)-2-methylpropane-1,3-diol] yielded a half-maximal inhibitory concentration (IC50) of 50.5 nM.

`Cc1c(COc2cc(OC[C@@H](C)CO)c(CNC(C)(CO)CO)cc2Cl)cccc1-c1ccc2c(c1)OCCO2` [Example 1036, (S)-2-((5-Chloro-4-((3-(2,3-dihydrobenzo[b][1,4]dioxin-6-yl)-2-methylbenzyl)oxy)-2-(3-hydroxy-2-methylpropoxy)benzyl)amino)-2-methylpropane-1,3-diol] had an IC50 of 4.6 nM.

Take `Cc1c(COc2cc(OCC3CCCN(C)C3)c(CN3CCCC[C@H]3C(=O)O)cc2Cl)cccc1-c1ccc2c(c1)OCCO2` (stereo partly drawn) [Example 2012, (2S)-1-(5-Chloro-4-((3-(2,3-dihydrobenzo[b][1,4]dioxin-6-yl)-2-methylbenzyl)oxy)-2-((1-methylpiperidin-3-yl)methoxy)benzyl)piperidine-2-carboxylic acid]: the IC50 was found to be 28.5 nM.

`Cc1c(COc2cc(OCCCCN3CC[C@@H](O)C3)c(CNC(C)(CO)CO)cc2Cl)cccc1-c1ccc2c(c1)OCCO2` [Example 1027, (R)-2-((5-Chloro-4-((3-(2,3-dihydrobenzo[b][1,4]dioxin-6-yl)-2-methylbenzyl)oxy)-2-(4-(3-hydroxypyrrolidin-1-yl)butoxy)benzyl)amino)-2-methylpropane-1,3-diol] had a concentration for half-maximal inhibition (IC50) of 4.1 nM.

The molecule `Cc1c(COc2cc(OCC3CCCN(C)C3)c(CN[C@@H](CO)C(=O)O)cc2Cl)cccc1-c1ccc2c(c1)OCCO2` (single isomer, unassigned) [Example 2006] yielded a concentration for half-maximal inhibition (IC50) of 2.8 nM.

Turning to `Cc1c(COc2cc(OC[C@H](C)CO)c(CN[C@](C)(CO)C(=O)O)cc2Cl)cccc1-c1ccc2c(c1)OCCO2` [Example 1032, (R)-2-((5-Chloro-4-((3-(2,3-dihydrobenzo[b][1,4]dioxin-6-yl)-2-methylbenzyl)oxy)-2-((R)-3-hydroxy-2-methylpropoxy)benzyl)amino)-3-hydroxy-2-methylpropanoic acid], the IC50 is 4.4 nM.

`Cc1cnc(COc2cc(OCc3cccc(-c4ccc5c(c4)OCCO5)c3C)c(Cl)cc2CN[C@H](CO)C(=O)O)cn1` [Example 1001, (R)-2-((5-Chloro-4-((3-(2,3-dihydrobenzo[b][1,4]dioxin-6-yl)-2-methylbenzyl)oxy)-2-((5-methylpyrazin-2-yl)methoxy)benzyl)amino)-3-hydroxypropanoic acid] returned a half-maximal inhibitory concentration (IC50) of 4.5 nM.

On to `COC(=O)C1(O)CCN(CCOc2cc(OCc3cccc(-c4ccc5c(c4)OCCO5)c3C)c(Cl)cc2CNC(C)(CO)CO)CC1` [Example 1053, Methyl 1-(2-(4-chloro-5-((3-(2,3-dihydrobenzo[b][1,4]dioxin-6-yl)-2-methylbenzyl)oxy)-2-(((1,3-dihydroxy-2-methylpropan-2-yl)amino)methyl)phenoxy)ethyl)-4-hydroxypiperidine-4-carboxylate], for which the IC50 came to 1.4 nM.

`Cc1c(COc2cc(OCC3CCCN(C)C3)c(CN[C@@H](CO)C(=O)O)cc2Cl)cccc1-c1ccc2c(c1)OCCO2` (single isomer, unassigned) [Example 2005] had an IC50 of 1.9 nM.

For `Cc1c(COc2cc(OCc3cncc(SCc4ccccc4)c3)c(CN3CCCC[C@H]3C(=O)O)cc2Cl)cccc1-c1ccc2c(c1)OCCO2` [Example 1010, (S)-1-(2-((5-(Benzylthio)pyridin-3-yl)methoxy)-5-chloro-4-((3-(2,3-dihydrobenzo [b][1,4]dioxin-6-yl)-2-methylbenzyl)oxy)benzyl)piperidine-2-carboxylic acid], the IC50 turned out to be 43.4 nM.

In turn, `Cc1c(COc2cc(OCc3cncc(C(=O)N[C@@H](CO)C(=O)O)c3)c(CN3CC[C@H](O)C3)cc2Cl)cccc1-c1ccc2c(c1)OCCO2` [Example 2009, (S)-2-(5-((4-chloro-5-((3-(2,3-dihydrobenzo[b][1,4]dioxin-6-yl)-2-methylbenzyl)oxy)-2-(((S)-3-hydroxypyrrolidin-1-yl)methyl)phenoxy)methyl)nicotinamido)-3-hydroxypropanoic acid] yielded an IC50 of 4.6 nM.

In the case of `Cc1c(COc2cc(OCCN3CCCC(O)(C(F)(F)F)C3)c(CN[C@](C)(CO)C(=O)O)cc2Cl)cccc1-c1ccc2c(c1)OCCO2` (stereo partly drawn) [Example 1057, (2R)-2-((5-Chloro-4-((3-(2,3-dihydrobenzo[b][1,4]dioxin-6-yl)-2-methylbenzyl)oxy)-2-(2-(3-hydroxy-3-(trifluoromethyl)piperidin-1-yl)ethoxy)benzyl)amino)-3-hydroxy-2-methylpropanoic acid], the half-inhibitory concentration (IC50) was found to be 6.2 nM.

`Cc1c(COc2cc(OCC(=O)N3CCS(=O)(=O)CC3)c(CN3CCCC[C@H]3C(=O)O)cc2Cl)cccc1-c1ccc2c(c1)OCCO2` [Example 1061, (S)-1-(5-chloro-4-((3-(2,3-dihydrobenzo[b][1,4]dioxin-6-yl)-2-methylbenzyl)oxy)-2-(2-(1,1-dioxidothiomorpholino)-2-oxoethoxy)benzyl)piperidine-2-carboxylic acid] showed an IC50 of 455 nM.

Molecule `Cc1c(COc2cc(OCCCCN3CC[C@@H](O)C3)c(CN3CCCC[C@H]3C(=O)O)cc2Cl)cccc1-c1ccc2c(c1)OCCO2` [Example 1025, (S)-1-(5-Chloro-4-((3-(2,3-dihydrobenzo[b][1,4]dioxin-6-yl)-2-methylbenzyl)oxy)-2-(4-((R)-3-hydroxypyrrolidin-1-yl)butoxy)benzyl)piperidine-2-carboxylic acid] returned a 50% inhibitory concentration (IC50) of 15.6 nM.

Consider `Cc1c(COc2cc(OCCCN(C)C)c(CN[C@@](C)(CO)C(=O)O)cc2Cl)cccc1-c1ccc2c(c1)OCCO2` [Example 2001, (S)-2-((5-chloro-4-((3-(2,3-dihydrobenzo[b][1,4]dioxin-6-yl)-2-methylbenzyl)oxy)-2-(3-(dimethylamino)propoxy)benzyl)amino)-3-hydroxy-2-methylpropanoic acid], for which the IC50 worked out at 9.5 nM.
